Experimental data from patent publication US12583895B2, “Polypeptides for restoring endothelial function and methods of use thereof” (Vanderbilt University, priority 2019, dated 2026).
Entries after “also recorded” stand apart in the source; their conditions may differ. Non-standard residues stand in square brackets, D forms with d. No end group written: not given here. pS = N[C@@H](COP(=O)(O)O)C(=O)O

What was measured:
rat aorta = test: Endothelial-dependent relaxation of rat aorta after BzATP (ATP / P2X7R) injury, muscle bath; format: cell-based; conditions: BzATP 1 mM, room temperature; for endothelial function (percent relaxation to carbachol of PE-precontracted tissue) after BzATP injury: peptide 100 and 500 μM, 1 hour
Method: Freshly isolated rat aorta was treated with 3′-O-(4-Benzoyl)benzoyl adenosine 5′-triphosphate (BzATP, 1 mM), an analogue of ATP, to induce injury in the absence or presence of NiPp (100 and 500 μM) for 1 hour at room temperature. To determine the effect of injury on endothelial function, phenylephrine (PE)-precontracted tissues were treated with carbachol (CCH; 5×10^−7 M) and the percent relaxation was determined as a change to the maximal PE-induced contraction. Data are reported as mean responses±standard deviation. n=5-6. *p<0.05, paired t-test.
Freshly isolated rat aorta was treated with 3′-O-(4-Benzoyl)benzoyl adenosine 5′-triphosphate (BzATP, 1 mM), an analogue of ATP, to induce injury in the absence or presence of NiPp, NiPp3, or scr3NiPp (A, 100 and B, 500 μM) for 1 hour at room temperature. To determine the effect of injury on endothelial function, phenylephrine (PE)-precontracted tissues were treated with escalating doses of carbachol (CCH; 10^−10 to 10^−5M) and the percent relaxation was determined as a change to the maximal PE-induced contraction. n=7. *p<0.05, two-way ANOVA with Tukey post-tests. There were significant differences between BzATP-treated vs ctrl or NiPp-treated RA.
Tissue rings were then transferred to NS and continued incubation in the absence or presence of NiPp (500 μM) for 2 h at room temperature. Control rings (Ctrl) were incubated in PL for 2.5 h. […] After treatments, RA were suspended in the muscle bath, contracted with PE and then treated with escalating doses of carbachol (CCH; 10^−8 to 10^−5M). The percent relaxation was determined as a change to the maximal PE-induced contraction. Percent relaxation to 5×10^−7 M CCH is shown. n=5-7 rats. *p<0.05 in one-way ANOVA with Tukey post-test. Data are expressed as mean±SD.
NiPp was synthesized at 3 separate times and tested in the muscle bath using rat aorta (RA). RA was either left untreated (Ctrl) or treated with BzATP (1 mM) in the absence of presence of NiPp (500 μM) in PL for 2 h at room temperature. After treatments, RA were suspended in the muscle bath, contracted with PE and then treated with escalating doses of carbachol 5×10^−7 M CCH. The percent relaxation was determined as a change to the maximal PE-induced contraction. […] Data are expressed as mean±SD.
Measurement of endothelial-dependent relaxation. […]
This produced the maximal force tension relationship as previously described. […] Contractile responses were defined by stress, calculated using force generated by tissues as follows: stress (×10^5 N/m^2)=force (g)×0.0987/area, where area=wet weight (mg)/at maximal length (mm)]/1.055.
Relaxation was calculated as percent change in stress compared to the maximal PE-induced contraction (set as 100%). […]

p38 MAPKα (MAPK14) = p38 MAPKα (MAPK14) (Homo sapiens, UniProt Q16539); test: SelectScreen kinase profiling; format: biochemical; conditions: peptide 100 μM, single concentration
Method: FIGS. 14A and 14B show kinase profiling of polypeptides. NiPp, scr3NiPp, and NiPp3 were profiled against 490 kinases at 100 uM using the SelectScreen Kinase Profiling Service (www.thermofisher.com). […] NiPp inhibits MSK1 and p38MAPK alpha by >60%. These two kinases are central to the p38MAPK kinase signaling cascade that play important roles in stress and inflammatory responses. NiPp-specific inhibitory activity to p38 MAPK were not detected for NiPp3 (non-phosphorylated) or scr3NiPp (scrambled) polypeptides.
Kinase profiling. NiPp was dissolved in DMSO, screened at a single concentration of 100 μM using in vitro kinase assays (SelectScreen Kinase Profiling Service; ThermoFisher Scientific, Madison WI) including the Z'LYTE and Adapta kinase activity assays and the LanthaScreen Eu Kinase Binding Assay). Candidate interactions were predicted using STRING Version 11 (www.string-db-org) with the human database at confidence=0.7.
As injury leads to increased p38 MAPK phosphorylation and decreased Niban phosphorylation, one of the mechanisms by which NiPp restores function after endothelial injury can be kinase inhibition. A kinase profiling was performed using three different profiling platforms that measure activity and kinase/substrate binding. […]

Sequence of p38 MAPKα (MAPK14) (Q16539 whole entry): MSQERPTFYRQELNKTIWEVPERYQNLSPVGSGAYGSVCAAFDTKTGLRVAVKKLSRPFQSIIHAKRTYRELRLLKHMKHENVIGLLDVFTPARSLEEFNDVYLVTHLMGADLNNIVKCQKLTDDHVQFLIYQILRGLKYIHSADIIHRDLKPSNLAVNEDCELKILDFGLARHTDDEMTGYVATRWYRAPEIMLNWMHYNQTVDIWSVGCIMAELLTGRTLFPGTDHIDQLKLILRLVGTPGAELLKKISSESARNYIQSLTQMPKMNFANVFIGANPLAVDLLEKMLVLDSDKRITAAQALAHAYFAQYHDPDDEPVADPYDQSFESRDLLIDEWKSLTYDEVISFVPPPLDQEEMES

Substance | endothelial function (percent relaxation to 5×10^−7 M CCH) after P2X7R activation by BzATP (rat aorta; NiPp 500 μM in PL, 1 h) | endothelial function (percent relaxation to carbachol of PE-precontracted tissue) after BzATP injury (rat aorta) | % inhibition of p38 MAPKα (p38 MAPKα (MAPK14))
YARAAARQARASPAARRA(pS)AILPG (YARAAARQARASPAARRA[pS]AILPG) [NiPp, Cell-permeant phosphopeptide mimetic of Niban: transduction domain … conjugated to the region surrounding serine 602 of Niban] | prevented; also recorded: restores | restored | 
YARAAARQARASPAARRASAILPG (not fully specified (residue 19)) [NiPp3] |  | did not restore | not detected
YARAAARQARAAGSPPLA(pS)AIARR (YARAAARQARAAGSPPLA[pS]AIARR) [scr3NiPp] |  | did not restore | not detected
